Results on one compound are retold here after patent publication US20110294828A1, “PROCESS FOR PREPARING A POLYMORPH OF THE CHOLINE SALT OF A PYRIMIDIN-5-YL ACETIC ACID DERIVATIVE” (BOEHRINGER INGELHEIM INTERNATIONAL GMBH, priority 2009, published 2011).

Each structure is given as a SMILES string. Counter-ions that a name gives are not always drawn.

A short description of series [1]: Dynamic vapor sorption/desorption (DVS). It is filed as physicochemical. Particulars: up to 75% relative humidity at 25° C. How it is done: Vapor sorption/desorption was carried out using Surface Measurement Systems DVS-HT. Samples were placed into a foil insert placed on a sample pan. […] The equilibrium point of each step was reached when 0.002% of weight change was reached.

Series [2] addresses T1, CRTH2 (Homo sapiens, UniProt Q9Y5Y4).
T1 sequence (Q9Y5Y4 1-395): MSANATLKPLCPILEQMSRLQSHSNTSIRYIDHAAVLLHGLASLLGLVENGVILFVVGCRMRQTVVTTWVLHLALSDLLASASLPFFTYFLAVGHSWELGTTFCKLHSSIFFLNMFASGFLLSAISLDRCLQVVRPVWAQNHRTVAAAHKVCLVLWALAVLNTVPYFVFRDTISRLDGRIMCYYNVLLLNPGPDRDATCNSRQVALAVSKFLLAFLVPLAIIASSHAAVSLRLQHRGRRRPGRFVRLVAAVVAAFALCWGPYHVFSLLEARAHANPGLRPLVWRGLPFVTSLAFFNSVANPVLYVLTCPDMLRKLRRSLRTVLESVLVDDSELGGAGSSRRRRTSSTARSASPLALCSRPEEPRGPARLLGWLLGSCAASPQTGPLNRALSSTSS
The experiment in a line: CRTH2 antagonistic activity (statement only, no method given).

A short description of series [3]: Particle size distribution (Sympatec HELOS, dry powder dispersion). The format is physicochemical. Also on record: particle size D90: dose or concentration left out as unconfirmed. As to conditions: for Particle size distribution (PSD) % <10 μM / Particle size distribution (PSD) % <50 μM / particle size D90: crystalline product as isolated, no milling; for particle size D90: the values are: particle size D90. On the procedure: Determination of particle size distribution was carried out using a Sympatec HELOS System H1588 with a RODOS/M Dry Powder Dispersion System.

In the case of `CN(C)c1nc(Cc2ccc(NC(=O)c3ccc(C(F)(F)F)cc3)cc2)nc(N(C)C)c1CC(=O)O` [choline salt of [4,6-bis(dimethylamino)-2-(4-{[4-(trifluoromethyl)benzoyl]amino}benzyl)pyrimidin-5-yl]acetic acid], in series [1], the “hygroscopicity (DVS isotherm, FIG. 3)” value is reported as “non-hygroscopic”. Besides, the CRTH2 antagonistic activity entry in series [2] is on record as “excellent”. The “Particle size distribution (PSD) % <10 μM” value in series [3] (listed as Comp. Ex. 2) was determined as 11.57; in series [3] (listed as Comp. Ex. 3), 6.87; in series [3] (listed as Comp. Ex. 4), 3.01; in series [3] (listed as Ex. 1), 5.13. In addition, the “Particle size distribution (PSD) % <50 μM” value in series [3] (listed as Comp. Ex. 2) was determined as 60.13; in series [3] (listed as Comp. Ex. 3), 57.62; in series [3] (listed as Comp. Ex. 4), 13.62; in series [3] (listed as Ex. 1), 16.67. Further, the particle size D90 in series [3] (listed as Comp. Ex. 2) turned out to be 120 µm; in series [3] (listed as Comp. Ex. 3) it was 181 µm; in series [3] (listed as Comp. Ex. 4), 38 µm; in series [3] (listed as Ex. 1), 35.5 µm. Also, the “diameter of 90% of the choline salt particles” value in series [3] (seeding step with seeding particles of which 90% have a diameter of less than 50 μm) is on record as “less than 100 μm”.
